The conditions of series [1]: well known, WO 86/03970; cited from earlier work.
A short description of series [2]: Stability of aqueous ibopamine solutions (ibopamine titer). The class given is physicochemical. The conditions noted are these: aqueous solutions buffered at pH 4.5, room temperature.

Counter-ions that a name gives are not always drawn.

Take `CNCCc1ccc(OC(=O)C(C)C)c(OC(=O)C(C)C)c1` [ibopamine, epinine 3,4-0-diisobutyrate]: the mydriatic activity entry in series [1] is listed as “endowed with mydriatic activity”. Take `CNCCc1ccc(OC(=O)C(C)C)c(OC(=O)C(C)C)c1` [ibopamine hydrochloride, Ibopamine hydrochloride]: the “period for which ibopamine titer remains substantially unchanged” value in series [2] fell in the range of 20 to 25 days.
